Results taken from EPA's ToxRefDB 2.

Legend:
[1] = tested on: rat; conditions: Prenatal developmental toxicity study; wistar; Oral; Feed; dose end: 15 GD; group: maternal; systemic / in life observation / body weight / body weight gain + systemic / in life observation / food consumption / food consumption
[2] = tested on: mouse; conditions: Chronic toxicity; b6c3f1; Oral; Feed; dose end: 2 year; group: systemic; systemic / clinical chemistry / alkaline phosphatase (alp/alk) / alkaline phosphatase (alp/alk) + systemic / organ weight / liver / absolute…
[3] = tested on: mouse; conditions: Subchronic oral toxicity in rodents, B6C3F1, Feed, dose end: 3 month, group: systemic
[4] = tested on: dog; conditions: Subchronic oral toxicity in nonrodent, beagle, Capsule, dose end: 90 day, group: systemic
[5] = tested on: dog; conditions: Chronic toxicity, beagle, Oral, Capsule, dose end: 52 week, group: systemic
[6] = tested on: rat; conditions: Multigenerational reproductive toxicity study, fischer, Oral, Feed, dose end: 1 generation
[7] = tested on: rat; conditions: Combined chronic toxicity/carcinogenicity, fischer, Oral, Feed, dose end: 2 year, group: systemic
[8] = tested on: rat; conditions: Chronic toxicity, fischer, Oral, Feed, dose end: 1 year, group: systemic
[9] = tested on: rat; conditions: Subchronic oral toxicity in rodents, sprague dawley, Feed, dose end: 13 week, group: systemic, systemic / pathology gross / kidney / discolored + systemic / in life observation / body weight / body weight + systemic / in life …
[10] = tested on: dog; conditions: Chronic toxicity, beagle, Oral, Feed, dose end: 52 week, group: systemic
[11] = tested on: dog; conditions: Subchronic oral toxicity in nonrodent, beagle, Feed, dose end: 13 week, group: systemic, systemic / clinical chemistry / albumin-globulin ratio / albumin-globulin ratio + systemic / clinical chemistry / aspartate aminotransferase…
[12] = tested on: mouse; conditions: Subchronic oral toxicity in rodents, cd1, Feed, dose end: 13 week, group: systemic, systemic / pathology microscopic / liver / lipid deposition
[13] = tested on: rat; conditions: Prenatal developmental toxicity study, wistar, Oral, Gavage/Intubation, dose end: 16 GD
[14] = tested on: rat; conditions: Combined chronic toxicity/carcinogenicity, sprague dawley, Oral, Feed, dose end: 104 week, group: systemic
[15] = tested on: mouse; conditions: Carcinogenicity, Charles River, Oral, Feed, dose end: 104 week, group: systemic
[16] = tested on: rat; conditions: Prenatal developmental toxicity study, sprague dawley, Oral, Gavage/Intubation, dose end: 15 GD
[17] = tested on: dog; conditions: Chronic toxicity; beagle; Oral; Feed; dose end: 52 week; group: systemic; systemic / organ weight / liver / relative to body weight + systemic / hematology / platelet / platelet + systemic / organ weight / kidney…
[18] = systemic / in life observation / body weight / body weight + systemic / in life observation / body weight / body weight gain
[19] = systemic / hematology / [other] / [other] + systemic / hematology / jolly bodies / jolly bodies + systemic / hematology / macrocytosis / …
[20] = systemic / hematology / polychromasia / polychromasia + systemic / hematology / lymphocyte / lymphocyte + systemic / in life observation / …
[21] = group: offspring, systemic / in life observation / clinical signs / urogenital staining + systemic / urinalysis / appearance and color / appearance and color
[22] = group: parental, systemic / organ weight / liver / absolute + systemic / organ weight / liver / relative to body weight + systemic / in life observation / …
[23] = systemic / in life observation / clinical signs / urine, discoloration + systemic / clinical chemistry / glucose / glucose
[24] = systemic / pathology microscopic / mammary gland / fibroadenoma + systemic / clinical chemistry / urea nitrogen / urea nitrogen + systemic…
[25] = systemic / organ weight / adrenal gland / absolute + systemic / organ weight / adrenal gland / relative to body weight + systemic / organ …
[26] = systemic / hematology / [other] / [other] + systemic / hematology / erythroblast / erythroblast + systemic / hematology / monocytes / …
[27] = systemic / hematology / erythroblast / erythroblast
[28] = group: developmental, developmental / developmental malformation / kidney / dilated renal pelvis + developmental / developmental malformation / ureter / distended
[29] = group: maternal, systemic / in life observation / clinical signs / salivation
[30] = systemic / in life observation / body weight / body weight + systemic / in life observation / body weight / body weight gain + systemic / in…
[31] = systemic / in life observation / body weight / body weight gain + systemic / pathology microscopic / lung / carcinoma + systemic / in life …
[32] = group: developmental, developmental / developmental malformation / kidney / small renal papilla
[33] = group: developmental, developmental / developmental malformation / kidney / small renal papilla + developmental / developmental malformation / spinal cord / …
[34] = group: maternal, systemic / in life observation / food consumption / food consumption + systemic / pathology gross / spleen / discolored
[35] = group: maternal, systemic / in life observation / food consumption / food consumption + systemic / pathology gross / spleen / discolored + reproductive / …

In the case of `CC(C)(C)c1ccc(O)cc1` [4-tert-Butylphenol], the LEL [1] is reported as 3590 mg/kg/day and the LOAEL [1] is reported as 3590 mg/kg/day.

`C=C(C)CN(CC)c1c([N+](=O)[O-])cc(C(F)(F)F)cc1[N+](=O)[O-]` [Ethalfluralin] was tested, and the LEL [2] was 47 mg/kg/day, the LOAEL [2] was 47 mg/kg/day and the NEL [2] was 11.6 mg/kg/day. The NOAEL [2] was 11.6 mg/kg/day, the LEL ([3]; systemic / clinical chemistry / bilirubin / total bilirubin + systemic / organ weight / kidney / absolute) was 136 mg/kg/day and the NOAEL ([3]; systemic / in life observation / body weight / body weight + systemic / clinical chemistry / alanine aminotransferase (alt/sgpt) / alanine …) was 285 mg/kg/day. It also gave an LOAEL [3, 18] of 538 mg/kg/day, an NEL ([3]; systemic / in life observation / body weight / body weight gain + systemic / clinical chemistry / bilirubin / total bilirubin + systemic / …) of 68 mg/kg/day and an LOAEL ([4]; systemic / in life observation / clinical signs / anorexia + systemic / in life observation / clinical signs / vomitting) of 125 mg/kg/day. It also gave an LEL ([4]; systemic / in life observation / clinical signs / anorexia + systemic / in life observation / clinical signs / vomitting + systemic / in …) of 125 mg/kg/day, an LOAEL [5, 19] of 20 mg/kg/day and an NOAEL [5, 19] of 4 mg/kg/day. For the same compound, the LEL [5, 20] was 4 mg/kg/day, the NEL [5, 20] was less than 4 mg/kg/day and the LEL [6, 21] was 20 mg/kg/day. The LOAEL [6, 21] was greater than 61 mg/kg/day, the NEL [6, 21] was 8 mg/kg/day and the NOAEL [6, 21] was no less than 61 mg/kg/day. It also gave an LOAEL ([6]; group: parental, systemic / organ weight / liver / absolute + systemic / organ weight / liver / relative to body weight) of 61 mg/kg/day, an NEL [6, 22] of 8 mg/kg/day and an NOAEL [6, 22] of 20 mg/kg/day. It also gave an LEL ([6]; group: parental, systemic / organ weight / liver / relative to body weight + systemic / in life observation / clinical signs / urogenital staining + systemic…) of 20 mg/kg/day, an LEL [7, 23] of 5 mg/kg/day and an NEL [7, 23] of less than 5 mg/kg/day. The LOAEL [7, 24] was greater than 37.5 mg/kg/day, the NOAEL [7, 24] was no less than 37.5 mg/kg/day and the LOAEL ([8]; systemic / in life observation / body weight / body weight gain + systemic / organ weight / liver / relative to body weight) was 37.5 mg/kg/day. For the same compound, the NOAEL ([8]; systemic / in life observation / body weight / body weight gain + systemic / organ weight / liver / relative to body weight + systemic / …) was 12.5 mg/kg/day, the LEL [8, 25] was 5 mg/kg/day and the NEL [8, 25] was less than 5 mg/kg/day.

`COC(=O)c1ccc(I)cc1S(=O)(=O)[N-]C(=O)Nc1nc(C)nc(OC)n1.[Na+]` [Iodosulfuron-methyl-sodium] was tested, and the LEL [9] was 347 mg/kg/day, the LOAEL [9] was 347 mg/kg/day and the LOAEL [10, 26] was 43.7 mg/kg/day. It also gave an NOAEL [10, 26] of 7.25 mg/kg/day, an LEL [10, 27] of 41.8 mg/kg/day and an NEL [10, 27] of 7.37 mg/kg/day. For the same compound, the LEL [11] was 49 mg/kg/day, the LOAEL [11] was 49 mg/kg/day and the NEL [11] was 8.1 mg/kg/day. The NOAEL [11] was 8.1 mg/kg/day, the LEL [12] was 139 mg/kg/day and the LOAEL [12] was 139 mg/kg/day. The NEL [12] was less than 139 mg/kg/day, the NOAEL [12] was less than 139 mg/kg/day and the LEL [13, 28] was 100 mg/kg/day. It also gave an LOAEL [13, 28] of 100 mg/kg/day, an NEL [13, 28] of less than 100 mg/kg/day and an NOAEL [13, 28] of less than 100 mg/kg/day. It also gave an LEL [13, 29] of 1000 mg/kg/day, an LOAEL [13, 29] of 1000 mg/kg/day and an NEL [13, 29] of 315 mg/kg/day. It also gave an NOAEL [13, 29] of 315 mg/kg/day, an LOAEL [14, 18] of 331 mg/kg/day and an LEL [14, 30] of 29.7 mg/kg/day. For the same compound, the NEL [14, 30] was 2.96 mg/kg/day and the NOAEL [14, 30] was 29.7 mg/kg/day.

For `CN(C)C(=O)Nc1cccc(C(F)(F)F)c1` [Fluometuron], the LOAEL ([15]; systemic / in life observation / body weight / body weight gain) was 260 mg/kg/day, the NEL [15, 31] was 1.2 mg/kg/day and the NOAEL [15, 31] was 61.5 mg/kg/day. The LEL ([15]; systemic / pathology microscopic / lung / carcinoma + systemic / in life observation / clinical signs / [other]) was 61.5 mg/kg/day, the LEL [16, 32] was 100 mg/kg/day and the LOAEL [16, 32] was 100 mg/kg/day. The NEL [16, 33] was 10 mg/kg/day, the NOAEL [16, 33] was 10 mg/kg/day and the LEL [16, 34] was 100 mg/kg/day. For the same compound, the LOAEL [16, 34] was 100 mg/kg/day, the NEL [16, 35] was 10 mg/kg/day and the NOAEL [16, 35] was 10 mg/kg/day. It also gave an NEL [17] of 237 mg/kg/day and an NOAEL [17] of 237 mg/kg/day.
